# US6872805B2 (Bristol-Myers Squibb Company, priority 2000, dated 2005)
# What was measured:
# [1] = system: HCV replicon in Huh7 cells; assay: HCV replicon cell-based assay; design: species or system HCV strain 1B; conditions: Hepatitis C virus, Huh-7, 96 h; HCV replicon, Huh7 cells, 4 days; activity ranges; read-out: EC50
# In short: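 Genotype 1b subgenomic replicon Huh7 cells exposed to compound 4 days at 37° C in 4% FCS, 0.5% DMSO medium. EC50 from TaqMan RT-PCR of HCV RNA, normalized to total RNA by RiboGreen; CC50 from alamar Blue fluorescence after 4 h.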
# [2] = molecular target: HCV NS3/4A protease complex (Hepatitis C virus genotype 1a, UniProt P27958, C1454S/C1711G); assay: Recombinant HCV NS3/4A protease complex FRET peptide assay (strain not stated); format: biochemical; conditions: IC50, NS3/4A protease enzyme assay, strain not stated; activity ranges
# Chain of HCV NS3/4A protease complex (P27958 1027-1711, stated change not applied): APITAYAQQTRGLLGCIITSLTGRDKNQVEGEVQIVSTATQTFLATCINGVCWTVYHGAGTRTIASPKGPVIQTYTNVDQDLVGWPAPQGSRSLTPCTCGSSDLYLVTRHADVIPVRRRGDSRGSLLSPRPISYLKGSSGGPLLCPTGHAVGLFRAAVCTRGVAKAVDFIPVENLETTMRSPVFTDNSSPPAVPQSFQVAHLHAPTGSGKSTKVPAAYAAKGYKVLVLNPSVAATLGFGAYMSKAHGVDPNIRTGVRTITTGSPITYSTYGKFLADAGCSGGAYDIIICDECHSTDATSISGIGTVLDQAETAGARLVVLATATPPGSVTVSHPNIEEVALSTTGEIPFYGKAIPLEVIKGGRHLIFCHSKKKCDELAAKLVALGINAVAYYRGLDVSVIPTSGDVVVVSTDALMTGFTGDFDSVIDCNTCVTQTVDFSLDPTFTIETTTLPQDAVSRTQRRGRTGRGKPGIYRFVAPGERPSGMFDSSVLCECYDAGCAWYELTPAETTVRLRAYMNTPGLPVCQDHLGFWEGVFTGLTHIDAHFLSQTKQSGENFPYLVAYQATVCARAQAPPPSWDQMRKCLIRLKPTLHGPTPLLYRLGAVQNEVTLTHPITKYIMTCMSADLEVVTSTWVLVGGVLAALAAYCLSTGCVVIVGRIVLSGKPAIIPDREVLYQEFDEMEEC
# Chain of HCV NS3/4A protease complex (P27958 1027-1711, stated change not applied): as above
SMILES,EC50 [1],IC50 [2]
COc1ccc2c(OC3C[C@@H](C(=O)NC4(C(=O)NS(=O)(=O)C5CC5)CCC45CC5)N(C(=O)[C@@H](NC(=O)OC(C)(C)C)C(C)(C)C)C3)cc(-c3ccccc3)nc2c1 (some centres unmarked) [Compound 141],< 5 µM,< 0.5 µM
"C=CCOC(=O)N[C@H](C(=O)N1C[C@H](Oc2cc(-c3ccccc3)nc3cc(OC)ccc23)CC1C(=O)N[C@]1(C(=O)NS(=O)(=O)C2CC2)C[C@H]1C=C)C(C)(C)C (stereo partly drawn) [Compound 126, {1S-[2S-(1R-cyclopropanesulfonylaminocarbonyl-2S-vinyl-cyclopropylcarbamoyl)-4R-(7-methoxy-2-phenyl-quinolin-4-yloxy)-pyrrolidine-1-carbonyl]-2,2-dimethyl-propyl}-carbamic acid allyl ester]",< 0.05 µM,< 0.05 µM
"C=CC1C[C@]1(NC(=O)[C@@H]1C[C@@H](Oc2cc(-c3ccccc3)nc3cc(OC)ccc23)CN1C(=O)[C@@H](NC(=O)O[C@H]1CCOC1)C(C)(C)C)C(=O)NS(=O)(=O)C1CC1 (stereo partly drawn) [Compound 18, {1-[2-(1-Cyclopropanesulfonylaminocarbonyl-2-vinylcyclopropylcarbamoyl)-4-(7-methoxy-2-phenyl-quinolin-4-yloxy)-pyrrolidine-1-carbonyl]-2,2-dimethyl-propyl}carbamic acid tetrahydrofuran-3(S)-yl ester]",< 0.05 µM,< 0.05 µM
"C=C[C@@H]1C[C@]1(NC(=O)C1C[C@@H](Oc2cc(-c3ccccc3)nc3cc(OC)ccc23)CN1C(=O)[C@@H](NC(=O)COc1ccc(F)cc1)C(C)(C)C)C(=O)NS(=O)(=O)C1CC1 (stereo partly drawn) [Compound 109, 1-{2S-[2-(4-Fluoro-phenoxy)-acetylamino]-3,3-dimethyl-butyryl}-4R-(7-methoxy-2-phenyl-quinolin-4-yloxy)-pyrrolidine-2S-carboxylic acid (1R-cyclopropanesulfonylaminocarbonyl-2S-vinylcyclopropyl)-amide]",< 0.5 µM,< 0.05 µM
C=CC1CC1(NC(=O)[C@@H]1C[C@@H](Oc2cc(-c3ccccc3)nc3cc(OC)ccc23)CN1C(=O)[C@@H](NC(=O)OC(C)(C)C)C(C)C)C(=O)NS(C)(=O)=O (some centres unmarked) [Compound 89],< 5 µM,< 0.5 µM
CCC(C)[C@H](NC(=O)OC(C)(C)C)C(=O)N1C[C@H](Oc2cc(-c3ccccc3)nc3cc(OC)ccc23)C[C@H]1C(=O)NC1(C(=O)NS(=O)(=O)C2CC2)CC1 (some centres unmarked) [Compound 68],< 5 µM,< 0.05 µM
COc1ccc2c(O[C@@H]3C[C@@H](C(=O)NC4(C(=O)NS(=O)(=O)C5CC5)CCC4)N(C(=O)[C@@H](NC(=O)OC(C)(C)C)C(C)(C)C)C3)cc(-c3ccccc3)nc2c1 [Compound 22],< 0.5 µM,< 0.05 µM
C=CC1C[C@]1(NC(=O)[C@@H]1C[C@@H](Oc2cc(-c3ccccc3)nc3cc(OC)ccc23)CN1C(=O)C(NC(=O)OC(C)(C)C)C(C)(C)C)C(=O)NS(=O)(=O)c1ccccc1C(=O)OC (some centres unmarked) [Compound 57],< 0.5 µM,< 0.5 µM
"C=C[C@@H]1C[C@]1(NC(=O)C1C[C@@H](Oc2cc(-c3ccccc3)nc3cc(OC)ccc23)CN1C(=O)[C@@H](NC(=O)C1(O)CC1)C(C)(C)C)C(=O)NS(=O)(=O)C1CC1 (stereo partly drawn) [Compound 111, 1-{2S-[(1-hydroxy-cyclopropanecarbonyl)-amino]-3,3-dimethyl-butyryl}-4R-(7-methoxy-2-phenyl-quinolin-4-yloxy)pyrrolidine-2S-carboxylic acid (1R-cyclopropanesulfonylaminocarbonyl-2S-vinylcyclopropyl)amide]",< 5 µM,< 0.05 µM
"C=C[C@@H]1C[C@]1(NC(=O)C1CC(Oc2cc(-c3ccccc3)nc3cc(OC)ccc23)CN1C(=O)[C@@H](NC(=O)OCC)C(C)(C)C)C(=O)NS(=O)(=O)C1CC1 (stereo partly drawn) [Compound 115, {1S-[2S-(1R-cyclopropanesulfonylaminocarbonyl-2S-vinyl-cyclopropylcarbamoyl)-4R-(7-methoxy-2-phenyl-quinolin-4-yloxy)-pyrrolidine-1-carbonyl]-2,2-dimethyl-propyl}-carbamic acid ethyl ester]",< 0.05 µM,< 0.05 µM
"C=C[C@@H]1C[C@]1(NC(=O)C1C[C@@H](Oc2cc(-c3ccccc3)nc3cc(OC)ccc23)CN1C(=O)[C@@H](NC(=O)OCC(C)(C)C)C(C)(C)C)C(=O)NS(=O)(=O)C1CC1 (stereo partly drawn) [Compound 125, {1S-[2S-(1R-cyclopropanesulfonylaminocarbonyl-2S-vinyl-cyclopropylcarbamoyl)-4R-(7-methoxy-2-phenyl-quinolin-4-yloxy)-pyrrolidine-1-carbonyl]-2,2-dimethyl-propyl}-carbamic acid 2,2-dimethyl-propyl ester]",< 0.05 µM,< 0.05 µM
C=CCC[C@](C)(NC(=O)[C@@H]1C[C@@H](Oc2cc(-c3ccccc3)nc3cc(OC)ccc23)CN1C(=O)C(NC(=O)OC(C)(C)C)C(C)(C)C)C(=O)NS(=O)(=O)c1cccc(C#N)c1 (some centres unmarked) [Compound 40],< 0.5 µM,< 0.05 µM
C=C1C[C@]1(NC(=O)[C@@H]1C[C@@H](Oc2cc(-c3ccccc3)nc3cc(OC)ccc23)CN1C(=O)C(NC(=O)OC(C)(C)C)C(C)(C)C)C(=O)NS(=O)(=O)c1ccccc1F (some centres unmarked) [Compound 54],< 0.5 µM,< 0.05 µM
"C=C[C@@H]1C[C@]1(NC(=O)C1CC(Oc2cc(-c3ccccc3)nc3cc(OC)ccc23)CN1C(=O)[C@@H](NS(C)(=O)=O)C(C)(C)C)C(=O)NS(=O)(=O)C1CC1 (stereo partly drawn) [Compound 117, 1-(2S-methanesulfonylamino-3,3-dimethyl-butyryl)-4R-(7-methoxy-2-phenyl-quinolin-4-yloxy)-pyrrolidine-2S-carboxylic acid (1R-cyclopropanesulfonylamino-carbonyl-2S-vinyl-cyclopropyl)-amide]",< 0.5 µM,< 0.05 µM
C=CCC[C@](C)(NC(=O)[C@@H]1C[C@@H](Oc2cc(-c3ccccc3)nc3cc(OC)ccc23)CN1C(=O)C(NC(=O)OC(C)(C)C)C(C)(C)C)C(=O)NS(=O)(=O)c1ccc(C)cc1 (some centres unmarked) [Compound 37],< 0.05 µM,< 0.05 µM
C=CC1C[C@]1(NC(=O)[C@@H]1C[C@@H](Oc2cc(-c3ccccc3)nc3cc(OC)ccc23)CN1C(=O)[C@@H](NC(=O)OC(C)(C)C)C(C)(C)C)C(=O)NS(=O)(=O)C(C)C (some centres unmarked) [Compound 27],< 0.5 µM,< 0.05 µM
"C=C[C@@H]1C[C@]1(NC(=O)C1CC(Oc2cc(-c3ccccc3)nc3cc(OC)ccc23)CN1C(=O)[C@@H](NC(=O)OCCF)C(C)(C)C)C(=O)NS(=O)(=O)C1CC1 (stereo partly drawn) [Compound 122, {1S-[2S-(1R-cyclopropanesulfonylaminocarbonyl-2S-vinyl-cyclopropylcarbamoyl)-4R-(7-methoxy-2-phenyl-quinolin-4-yloxy)-pyrrolidine-1-carbonyl]-2,2-dimethyl-propyl}-carbamic acid 2-fluoroethyl ester]",< 0.05 µM,< 0.05 µM
"C=C[C@@H]1C[C@]1(NC(=O)C1C[C@@H](Oc2cc(-c3ccccc3)nc3cc(OC)ccc23)CN1C(=O)[C@@H](NC(=O)CO)C(C)(C)C)C(=O)NS(=O)(=O)C1CC1 (stereo partly drawn) [Compound 102, 1-[2S-(2-hydroxy-acetylamino)-3,3-dimethyl-butyryl]-4R-(7-methoxy-2-phenyl-quinolin-4-yloxy)-pyrrolidine-2S-carboxylic acid (1R-cyclopropanesulfonylamino-carbonyl-2S-vinyl-cyclopropyl)-amide]",< 0.5 µM,< 0.05 µM
C=C1C[C@]1(NC(=O)[C@@H]1C[C@@H](Oc2cc(-c3ccccc3)nc3cc(OC)ccc23)CN1C(=O)C(NC(=O)OC(C)(C)C)C(C)(C)C)C(=O)NS(=O)(=O)c1ccccc1C(F)(F)F (some centres unmarked) [Compound 47],< 0.5 µM,< 0.05 µM
CCC(C)[C@H](NC(=O)OC(C)(C)C)C(=O)N1C[C@H](Oc2cc(-c3ccccc3)nc3cc(OC)ccc23)C[C@H]1C(=O)NC1(C(=O)NS(=O)(=O)C2CC2)CC12CCC2 (some centres unmarked) [Compound 137],< 5 µM,< 5 µM
C=CC1C[C@]1(NC(=O)[C@@H]1C[C@@H](Oc2cc(-c3ccccc3)nc3cc(OC)ccc23)CN1C(=O)C(NC(=O)OC(C)(C)C)C(C)(C)C)C(=O)NS(=O)(=O)c1ccc(OC)cc1 (some centres unmarked) [Compound 59],< 0.05 µM,< 0.05 µM
C=CC1C[C@]1(NC(=O)[C@@H]1C[C@@H](Oc2cc(-c3ccccc3)nc3cc(OC)ccc23)CN1C(=O)[C@@H](NC(=O)OC(C)(C)C)C(C)(C)C)C(=O)NS(=O)(=O)CC (some centres unmarked) [Compound 25],< 0.5 µM,< 0.05 µM
"C=C[C@@H]1C[C@]1(NC(=O)C1C[C@@H](Oc2cc(-c3ccccc3)nc3cc(OC)ccc23)CN1C(=O)[C@@H](NC(=O)C(F)(F)F)C(C)(C)C)C(=O)NS(=O)(=O)C1CC1 (stereo partly drawn) [Compound 99, 1-[3,3-dimethyl-2S-(2,2,2-trifluoro-acetylamino)-butyryl]-4R-(7-methoxy-2-phenylquinolin-4-yloxy)pyrrolidine-2S-carboxylic acid(1R-cyclopropanesulfonylaminocarbonyl-2S-vinylcyclopropyl)amide]",< 0.5 µM,< 0.05 µM
CCC1C[C@]1(NC(=O)[C@@H]1C[C@@H](Oc2cc(-c3ccccc3)nc3cc(OC)ccc23)CN1C(=O)[C@@H](NC(=O)OC1CCCC1)C(C)C)C(=O)NS(=O)(=O)C1CC1 (some centres unmarked) [Compound 6],< 0.05 µM,< 0.05 µM
"C=C[C@@H]1C[C@]1(NC(=O)C1C[C@@H](Oc2cc(-c3ccccc3)nc3cc(OC)ccc23)CN1C(=O)[C@@H](NC(C)=O)C(C)(C)C)C(=O)NS(=O)(=O)C1CC1 (stereo partly drawn) [Compound 98, 1-(2S-Acetylamino-3,3-dimethyl-butyryl)-4R-(7-methoxy-2-phenyl-quinolin-4-yloxy)-pyrrolidine-2S-carboxylic acid (1R-cyclopropanesulfonylaminocarbonyl-2S-vinyl-cyclopropyl)amide]",< 0.5 µM,< 0.05 µM
